Assay results taken from publication PMC8557474, “Reliability of the AR-CALUX®In Vitro Method Used to Detect Chemicals with (Anti)Androgen Activity: Results of an International Ring Trial” (Toxicological Sciences, 2021).
≈ marks a conversion by molar mass, not a printed value.

Assays:
[1] = Solubility testing (visual inspection, centrifugation, microscopy)
Method: It details the cell cultivation and seeding procedure, the preparation of the reference, control and test chemicals, the procedure for agonist testing and antagonist testing, prescreen runs, and comprehensive runs, as well as data analysis and data interpretation. This SOP also includes references to the SOPs for solubility testing and cytotoxicity testing. […] Solubility was tested both in the solvent and in media under similar circumstances as would be required during the (ant)agonist testing. The initial concentration to be tested was prescribed at 50 mg/ml. Starting from the highest soluble concentration, cytotoxicity was determined with an LDH assay. Visual checking of cytotoxicity in all wells of the plate was however also required for each run.
This included an investigation by heating, centrifugation, microscopy, and visual checking. […] For the purpose of the validation study, the labs were requested to start from 50 mg/ml as the maximal stock concentration to be tested.

[2] = target: T1, human androgen receptor (hAR) (Homo sapiens, UniProt P10275); assay: AR-CALUX antagonist assay (medium spiked with DHT at EC50); format: cell-based; conditions: for Antagonist classification per run, Lab 1: Lab 1, 3 runs; for Antagonist classification per run, Lab 2: Lab 2, 3 runs; for Antagonist classification per run, Lab 3: Lab 3, 3 runs; for Antagonist classification per run, Lab 4: Lab 4, 3 runs
T1 construct: host or cells: U2-OS human osteosarcoma cells (ATCC HTB 96), stably transfected (AR-CALUX cell line)
T1 sequence (P10275 1-920): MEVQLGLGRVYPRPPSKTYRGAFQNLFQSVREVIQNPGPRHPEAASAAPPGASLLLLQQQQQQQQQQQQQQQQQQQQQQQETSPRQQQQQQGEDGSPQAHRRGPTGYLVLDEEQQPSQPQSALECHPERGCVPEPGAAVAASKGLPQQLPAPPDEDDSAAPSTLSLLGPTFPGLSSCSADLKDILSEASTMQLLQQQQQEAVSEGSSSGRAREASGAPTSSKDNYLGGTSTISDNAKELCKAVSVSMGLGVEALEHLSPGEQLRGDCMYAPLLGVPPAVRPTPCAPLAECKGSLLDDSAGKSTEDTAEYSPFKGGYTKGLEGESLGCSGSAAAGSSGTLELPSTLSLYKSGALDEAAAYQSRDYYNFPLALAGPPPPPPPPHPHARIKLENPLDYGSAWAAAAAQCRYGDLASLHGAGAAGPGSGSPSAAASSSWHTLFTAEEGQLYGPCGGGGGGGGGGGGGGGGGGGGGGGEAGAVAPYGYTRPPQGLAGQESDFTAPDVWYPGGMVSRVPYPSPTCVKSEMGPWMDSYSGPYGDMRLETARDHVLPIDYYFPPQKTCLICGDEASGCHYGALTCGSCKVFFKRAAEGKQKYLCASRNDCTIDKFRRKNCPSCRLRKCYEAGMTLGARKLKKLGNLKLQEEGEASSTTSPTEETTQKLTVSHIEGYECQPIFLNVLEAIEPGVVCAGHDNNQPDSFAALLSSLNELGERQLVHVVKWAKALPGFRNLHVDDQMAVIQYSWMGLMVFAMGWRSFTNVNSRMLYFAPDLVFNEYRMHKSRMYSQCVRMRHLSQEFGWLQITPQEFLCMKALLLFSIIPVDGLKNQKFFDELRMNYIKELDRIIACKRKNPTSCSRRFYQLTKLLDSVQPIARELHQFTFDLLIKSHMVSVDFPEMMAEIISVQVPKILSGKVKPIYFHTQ
Source text: (§1) The AR-CALUX® cell line was created by BioDetection Systems (BDS). It can be purchased from BDS with a license (https://www.biodetectionsystems.com). The human osteosarcoma cell line U2-OS (ATCC HTB 96) was transfected with 2 constructs: pSG5-neo-hAR carrying the cDNA of a human androgen receptor (hAR) under a constitutive promoter, and, a luciferase reporter gene which is preceded by a triple tandem of AREs in front of a TATA box (3x ARE Luc). […] The AR-CALUX® cell line was obtained from the test method developer BDS. EURL ECVAM prepared a master cell bank and a large working cell bank which were tested for the absence of mycoplasma, bacteria, fungi, and yeast and for the absence of Hepatitis B and C and HIV. In addition, to verifying the authenticity of the cell line, Short Tandem Repeat (STR) profiling was carried out to confirm the test system to be U2-OS cells. […] The laboratories were requested, at the end of each part of the study (Parts 1, 2, and 3), to perform a mycoplasma test of their choice. Additional aliquots were sent to EURL ECVAM for a reanalysis of authenticity.
(§2) Subsequently, the test chemical was assessed with a prescreen run (dilution steps of 10) and simultaneously with the quantitative cytotoxicity test to determine (1) cytotoxic concentrations, (2) the response, and (3) the appropriate dose range to be tested. […] The cytotoxicity test was performed once more. Test chemicals were diluted in media and consisted of 8 serial dilutions. Each dilution was tested in triplicate.
(§3) Each experiment (run) was comprised of a maximum of 6 plates. The first plate would contain 8 serial dilutions of the reference chemical DHT (for agonism) or Flutamide (for antagonism), while the positive and negative controls were added at fixed concentrations. In addition, a solvent control was added (medium without the chemical but with DMSO 0.1%).
For the antagonist assay, the medium was supplemented with DHT at EC50 concentration (standard assay). […] Each antagonist assay was accompanied by a specificity control test carried out on the same plate.
A. Positive (competitive antagonist) when the relative induction (Yc) of the test item is ≤ 80% (REF RPC80) for two or more consecutive concentrations and […]

[3] = target: T1, human androgen receptor (hAR); assay: cell-based; format: cell-based; conditions: for Agonist classification per run, Lab 1: Lab 1, 3 runs; for Agonist classification per run, Lab 2: Lab 2, 3 runs; for Agonist classification per run, Lab 3: Lab 3, 3 runs; for Agonist classification per run, Lab 4: Lab 4, 3 runs
Source text: as §1, §2, §3
A. Positive when the relative induction (Yc) of the test item is ≥ 10% (REF RPC10) for two or more consecutive concentrations.

[4] = DMSO, Lab 1, highest tested 50 mg/ml
[5] = DMSO, Lab 2, highest tested 50 mg/ml
[6] = DMSO, Lab 3, highest tested 50 mg/ml
[7] = DMSO, Lab 4, highest tested 50 mg/ml
[8] = aqueous buffer, kinetic from dmso stock, Solubility in medium, Lab 1, assay medium, Lab 1
[9] = aqueous buffer, kinetic from dmso stock, Solubility in medium, Lab 2, assay medium, Lab 2
[10] = aqueous buffer, kinetic from dmso stock, Solubility in medium, Lab 3, assay medium, Lab 3
[11] = aqueous buffer, kinetic from dmso stock, Solubility in medium, Lab 4, assay medium, Lab 4
[12] = organic solvent or mixture, thermodynamic from solid, Solubility in DMSO, Lab 1, DMSO, Lab 1, highest tested 50 mg/ml
[13] = organic solvent or mixture, thermodynamic from solid, Solubility in DMSO, Lab 2, DMSO, Lab 2, highest tested 50 mg/ml
[14] = organic solvent or mixture, thermodynamic from solid, Solubility in DMSO, Lab 3, DMSO, Lab 3, highest tested 50 mg/ml
[15] = organic solvent or mixture, thermodynamic from solid, Solubility in DMSO, Lab 4, DMSO, Lab 4, highest tested 50 mg/ml

| Compound | Solubility in DMSO, Lab 1 [1, 4] [µg/mL] | Solubility in DMSO, Lab 2 [1, 5] [µg/mL] | Solubility in DMSO, Lab 3 [1, 6] [µg/mL] | Solubility in DMSO, Lab 4 [1, 7] [µg/mL] | Solubility in medium, Lab 1 ([1]; assay medium, Lab 1) [µg/mL] | Solubility in medium, Lab 2 ([1]; assay medium, Lab 2) [µg/mL] | Solubility in medium, Lab 3 ([1]; assay medium, Lab 3) [µg/mL] | Solubility in medium, Lab 4 ([1]; assay medium, Lab 4) [µg/mL] | Antagonist classification per run, Lab 1 [2] | Antagonist classification per run, Lab 2 [2] | Antagonist classification per run, Lab 3 [2] | Antagonist classification per run, Lab 4 [2] | solubility [1, 8] [µg/mL] | solubility [1, 9] [µg/mL] | solubility [1, 10] [µg/mL] | solubility [1, 11] [µg/mL] | solubility [1, 12] [µg/mL] | solubility [1, 13] [µg/mL] | solubility [1, 14] [µg/mL] | solubility [1, 15] [µg/mL] | further results |
| --- | --- | --- | --- | --- | --- | --- | --- | --- | --- | --- | --- | --- | --- | --- | --- | --- | --- | --- | --- | --- | --- |
| CC(=O)S[C@@H]1CC2=CC(=O)CC[C@]2(C)[C@H]2CC[C@@]3(C)[C@@H](CC[C@@]34CCC(=O)O4)[C@H]12 [Spironolactone] | – | – | – | – | – | – | – | – | – | – | – | – | – | – | – | – | – | – | – | – | solubility ([1]; DMSO, organic solvent or mixture, thermodynamic from solid, Solubility in DMSO, Lab 1, DMSO, Lab 1, highest tested 50 mg/ml): 15000 µg/mL (≈ 36000 µM); solubility ([1]; DMSO, organic solvent or mixture, thermodynamic from solid, Solubility in DMSO, Lab 2, DMSO, Lab 2, highest tested 50 mg/ml): > 50000 µg/mL; solubility ([1]; DMSO, organic solvent or mixture, thermodynamic from solid, Solubility in DMSO, Lab 3, DMSO, Lab 3, highest tested 50 mg/ml): > 50000 µg/mL; solubility ([1]; DMSO, organic solvent or mixture, thermodynamic from solid, Solubility in DMSO, Lab 4, DMSO, Lab 4, highest tested 50 mg/ml): > 50000 µg/mL; solubility ([1]; assay medium, aqueous buffer, kinetic from dmso stock, Solubility in medium, Lab 1, assay medium, Lab 1): 15 µg/mL (≈ 36 µM); solubility ([1]; assay medium, aqueous buffer, kinetic from dmso stock, Solubility in medium, Lab 2, assay medium, Lab 2): > 50 µg/mL; solubility ([1]; assay medium, aqueous buffer, kinetic from dmso stock, Solubility in medium, Lab 3, assay medium, Lab 3): > 50 µg/mL; solubility ([1]; assay medium, aqueous buffer, kinetic from dmso stock, Solubility in medium, Lab 4, assay medium, Lab 4): > 50 µg/mL |
| CCCCC(CC)COC(=O)c1ccccc1C(=O)OCC(CC)CCCC (stereo not shown) [Diethylhexyl phthalate] | 15000 (≈ 38400 µM) | > 50000 | > 50000 | > 50000 | 15 (≈ 38.4 µM) | 15 (≈ 38.4 µM) | > 50 | > 50 | – | – | – | – | – | – | – | – | – | – | – | – | – |
| CCN(CC)C(=S)SSC(=S)N(CC)CC [Disulfiram] | – | – | – | – | – | – | – | – | N N N | N N N | N N N | N N N | 5 (≈ 16.9 µM) | 15 (≈ 50.6 µM) | 15 (≈ 50.6 µM) | 15 (≈ 50.6 µM) | > 50000 | > 50000 | > 50000 | > 50000 | Agonist classification per run, Lab 1 [3]: N N N; Agonist classification per run, Lab 2 [3]: N N N; Agonist classification per run, Lab 3 [3]: N N N; Agonist classification per run, Lab 4 [3]: N N N |
| C[C@]12Cc3c[nH]nc3C[C@@H]1CC[C@@H]1[C@@H]2CC[C@@]2(C)[C@H]1CC[C@]2(C)O [Stanozolol] | – | – | – | – | – | – | – | – | – | – | – | – | 5 (≈ 15.2 µM) | 5 (≈ 15.2 µM) | 2 (≈ 6.09 µM) | 5 (≈ 15.2 µM) | 5000 (≈ 15200 µM) | > 50000 | 15000 (≈ 45700 µM) | > 50000 | – |
| C=CC1(C)OC(=O)N(c2cc(Cl)cc(Cl)c2)C1=O (stereo not shown) [Vinclozolin] | – | – | – | – | – | – | – | – | – | – | – | – | 5 (≈ 17.5 µM) | 15 (≈ 52.4 µM) | 15 (≈ 52.4 µM) | 15 (≈ 52.4 µM) | > 50000 | > 50000 | > 50000 | > 50000 | – |
| [N-]=[N+]=[N-].[Na+] [Sodium azide] | 15000 | 15000 | 15000 | 15000 | 15 | 15 | 15 | 5 | N N N | N N N | N N N | N N N | – | – | – | – | – | – | – | – | Agonist classification per run, Lab 1 [3]: N N N; Agonist classification per run, Lab 2 [3]: N N N; Agonist classification per run, Lab 3 [3]: N N N; Agonist classification per run, Lab 4 [3]: N N N |
